Reference: patent US11458198B2, “HPV epitopes targeted by T cells infiltrating cervical malignancies for use in vaccines” (Academisch Ziekenhuis Leiden H.O.D.N. LUMC, priority 2007, dated 2022)

How the values were obtained:
Assay type in all cases: cell-based, human
[1] = tested on: skin test infiltrating lymphocytes; test: Intracellular cytokine staining of T cell cultures from positive skin reaction sites
Text: Skin tests, based on Delayed Type Hypersensitivity reactions (DTH), can be used as a sensitive and simple method for in vivo measurement of HPV-specific cellular immune responses (Hopfl, 2000; Hopfl, 1991). The skin test preparations consisted of 8 pools of long clinical-grade synthetic peptides spanning the whole HPV 16 E6 and E7 protein and the most immunogenic regions of HPV 16 E2 protein (de Jong, 2004). These clinical grade peptides were produced in the interdivisional GMP-Facility of the LUMC. Each pool of the skin test consisted of 2 or 3 synthetic peptides, indicated by the first and last amino acid of the region in the protein covered by the peptides. Pool 1: E231-60, E246-75, Pool 2: E2301-330, E2316-345, Pool 3: E61-31, E619-50 (SEQ ID NO: 28), Pool 4: E641-65 (SEQ ID NO: 29), E655-80 (SEQ ID NO: 30), E671-95 (SEQ ID NO: 31), Pool 5: E685-109 (SEQ ID NO: 32), E691-122 (SEQ ID NO: 33), Pool 6: E6109-140 (SEQ ID NO: 34), E6127-158 (SEQ ID NO: 35), Pool 7: E71-35 (SEQ ID NO: 36), E722-56 (SEQ ID NO: 37), Pool 8: E743-77 (SEQ ID NO: 38), E764-98 (SEQ ID NO: 39). Pool 3 comprises Seq ID 5, 22 and 23. Pool 4 comprises Seq IDs 7-9. Pool 5 comprises Seq IDs 11 and 12. Pool 6 comprises Seq IDs 13, 14, 24 and 25. Pool 7 comprises Seq ID 15 and 26. Pool 8 comprises Seq IDs 16 and 17. Per peptide pool 0.05 ml of 0.2 mg/ml peptides in 16% DMSO in 20 mM isotonic phosphate buffer (10 μg/peptide) was injected intracutaneously. The pools of peptides and a negative control (dissolvent only) were injected separately at individual skin test sites of the upper arm. Skin test sites were inspected at least three times, at 72 hours and 7 days after injection (Hopfl) of the peptides and at 3 weeks following the first report of a very late skin reaction in one of the first healthy subjects. […]
The specificity and character of the T cell cultures derived from positive skin reaction sites was tested by ICS as reported previously (de Jong, 2005). […] After incubation at 4° C., the cells were washed, fixed with 1% paraformaldehyde and analyzed by flow cytrometry (FACSscan, BD Biosciences)

HPV-specific T cells = test: Fine specificity with single peptides (proliferation and IFNγ production); details: patients C265, C334, C284, C228 respectively
Procedure: T cell cultures (25,000-50,000 cells/well) were tested on pulsed autologous monocytes or irradiated autologous EBVs for the recognition of HPV16 and 18 E6 and E7 peptides (5 μg/ml) and protein (10 μg/ml) in triplicate in a 3 day proliferation assay. After 48 hours supernatant was harvested and stored at −20° C. for cytokine analysis. During the last 16 hours of culture 0.5 μCi/well [^3H]thymidine was added to measure proliferation (van der Burg et al. 2001). Antigen specific IFNγ production was measured by ELISA as described earlier (van der Burg et al. 1999).
Following the evaluation of HPV-specific reactivity, the 19 responding T cell lines were expanded by stimulation with cognate peptide, cytokine mix and feeder cells. Fifteen of these HPV-specific cultures could be sufficiently expanded for further analysis. The fine specificity of the HPV-specific T cells was determined in short-term stimulation assays using single peptides. Five cultures recognized 2 or more distinct peptides, whereas the other 10 cultures recognized a single peptide (FIG. 1B, Table 1). To assess the type of T cell that responded to antigenic stimulation, the T cell cultures were stimulated with their cognate peptide and protein antigens and the response was analyzed by intra-cellular IFNγ staining (FIG. 2). The majority of the TIL cultures contained HPV-specific CD4+ infiltrating T lymphocytes (n=13 patients, 13 different peptides recognized), whereas HPV-specific CD8^+ T cells infiltrating lymphocytes were found in 6 cultures. In 9 of the HPV-specific T cell lines only a CD4^+ T cell response was detected, in 4 T cell lines both CD4^+ T cells and CD8^+ T cells reacted and in 2 T cell lines only a CD8 T cells response was detected (Table 1, FIG. 2).

[2] = tested on: HPV-specific CD4+ and CD8+ T cells; test: HLA restriction and minimal epitope (blocking antibodies, partially HLA matched APC, IFNγ ELISPOT); details: HLA-A*0201-restricted tumor-infiltrating CD8+ T cells
Procedure: MHC class II blocking experiments were performed as reported before using murine monoclonal antibodies against HLA-DR (B8.11.2), HLA-DQ (SPV.L3) and HLA-DP (B7/21) (van der Burg et al. 1999). Peptide-pulsed APC were incubated with anti-MHC class II antibodies for 2 hours prior to the addition of T cells.
Enumeration of IFNγ producing T cells as measured by intracellular cytokine staining was performed as described earlier (de Jong et al. 2005). Briefly, APC were loaded with cognate peptide or recombinant protein and incubated with T cell cultures. After 1 hour of incubation 10 μg/ml Brefeldin A (Sigma) was added and incubated overnight. Hereafter the cells were fixed with 4% paraformaldehyde (Sigma) and permeabilized with 0.1% Saponin. The samples were subsequently stained with CD4-APC, CD8-PerCP and IFNγ-PE and analyzed by flow cytometry. The minimal peptide recognized by CD8 T cells was analysed by IFNγ ELISPOT (van der Burg et al. 2001, Welters et al. 2006, de Jong et al. 2002). CD8 T cell lines were seeded in triplicate wells at a density of 2×104 on a Multiscreen 96-well plate (Millipore, Etten-Leur, The Netherlands) coated with an IFNγ catch antibody (Mabtech. Nacha, Sweden). The microcultures were stimulated with 5 μg/ml 10-mer peptides and incubated overnight. […] The number of spots was analysed on a fully automated computer assisted video imaging system (BIOSYS). […]

[3] = tested on: HPV-specific T cell cultures; test: Intracellular cytokine staining for IFNγ, type of T cell responding; details: TIL culture of C265
Procedure: Enumeration of IFNγ producing T cells as measured by intracellular cytokine staining was performed as described earlier (de Jong et al. 2005). Briefly, APC were loaded with cognate peptide or recombinant protein and incubated with T cell cultures. After 1 hour of incubation 10 μg/ml Brefeldin A (Sigma) was added and incubated overnight. Hereafter the cells were fixed with 4% paraformaldehyde (Sigma) and permeabilized with 0.1% Saponin. The samples were subsequently stained with CD4-APC, CD8-PerCP and IFNγ-PE and analyzed by flow cytometry. The minimal peptide recognized by CD8 T cells was analysed by IFNγ ELISPOT (van der Burg et al. 2001, Welters et al. 2006, de Jong et al. 2002). CD8 T cell lines were seeded in triplicate wells at a density of 2×104 on a Multiscreen 96-well plate (Millipore, Etten-Leur, The Netherlands) coated with an IFNγ catch antibody (Mabtech. Nacha, Sweden). The microcultures were stimulated with 5 μg/ml 10-mer peptides and incubated overnight. Analysis of HLA restriction of CD8 T cells was performed using 5 μg/ml 10-mer peptide pulsed PBMC or B-LCL co-cultured with equal numbers of T cells. IFNγ specific spots were stained according to the instructions of the manufacturer (Mabtech). The number of spots was analysed on a fully automated computer assisted video imaging system (BIOSYS).

E6127-158: HPV16 E6 amino acids 127-158, clinical-grade long peptide (DKKQRFHNIRGRWTGRCMSCCRSSRTRRETQL; Human papillomavirus type 16)
response of CD8+ T cells isolated from the biopsy ([1]; HD2, biopsy of pool 6): responded

HPV16E6.37-68: amino acids 37-68 of HPV16 E6 protein (CVYCKQQLLRREVYDFAFRDLCIVYRDGNPYA; Human papillomavirus type 16)
response of bulk culture to single peptide, proliferation and IFNγ production (FIG. 1B) (HPV-specific T cells): responded
response of CD8+ T cells isolated from the biopsy ([1]; subjects HD15 and HD16): responded

HPV16E7.11-19: amino acids 11-19 of HPV16 E7 protein (IVLHLEPQN; Human papillomavirus type 16)
reactivity of CD8+ T cells compared with HPV16 E7.11-20 [2]: stronger reactivity

HPV18E7.21-42: amino acids 21-42 of HPV18 E7 protein (IPVDLLCHEQLSDSEEENDEID; Human papillomavirus type 18)
response of bulk culture to single peptide, proliferation and IFNγ production (FIG. 1B) (HPV-specific T cells): responded

HPV16E6 peptide 137-158: 22-mer peptide, amino acids 137-158 of HPV16 E6 (GRWTGRCMSCCRSSRTRRETQL; UniProt P03126 137-158, looked up, fragment)
response of bulk culture to single peptide, proliferation and IFNγ production (FIG. 1B) (HPV-specific T cells): responded

HPV16 E6109-140: HPV16 E6 amino acids 109-140, clinical-grade long peptide (RCINCQKPLCPEEKQRHLDKKQRFHNIRGRWT; Human papillomavirus type 16)
response of CD8+ T cells isolated from the biopsy ([1]; HD2, biopsy of pool 6): responded

HPV16E7 peptide 71-92: 22-mer peptide, amino acids 71-92 of HPV16 E7 (STHVDIRTLEDLLMGTLGIVCP; UniProt P03129 71-92, looked up, fragment)
response of bulk culture to single peptide, proliferation and IFNγ production (FIG. 1B) (HPV-specific T cells): responded

HPV16 E6 41-62: 22-mer peptide, amino acids 41-62 of HPV16 E6 (KQQLLRREVYDFAFRDLCIVYR; UniProt P03126 41-62, looked up, fragment)
type of T cell responding, intracellular IFNγ (FIG. 2) [3]: CD4^+ and CD8^+ T cell response
